{"source": "patent US10024856B2", "about": "“Identification and characterization of a peptide affinity reagent for the detection of noroviruses in clinical samples” (priority 2013, dated 2018)", "test_system": "NV-VLP", "sequence (Q83884 whole entry)": "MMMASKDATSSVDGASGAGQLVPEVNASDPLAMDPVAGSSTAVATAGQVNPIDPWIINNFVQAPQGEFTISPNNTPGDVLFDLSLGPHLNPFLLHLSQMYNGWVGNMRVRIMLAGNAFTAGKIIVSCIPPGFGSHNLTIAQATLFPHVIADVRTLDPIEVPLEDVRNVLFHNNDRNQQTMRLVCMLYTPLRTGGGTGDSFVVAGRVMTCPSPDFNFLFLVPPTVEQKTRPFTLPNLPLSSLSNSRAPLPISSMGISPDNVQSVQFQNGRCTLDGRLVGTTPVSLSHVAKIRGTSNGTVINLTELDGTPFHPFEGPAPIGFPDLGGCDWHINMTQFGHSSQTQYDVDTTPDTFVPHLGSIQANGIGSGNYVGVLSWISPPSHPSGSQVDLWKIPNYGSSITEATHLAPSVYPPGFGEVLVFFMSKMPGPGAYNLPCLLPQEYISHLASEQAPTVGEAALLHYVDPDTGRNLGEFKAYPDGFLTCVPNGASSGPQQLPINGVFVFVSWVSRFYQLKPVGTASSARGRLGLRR", "settings": "0-5 μg NV-VLP adsorbed on 96-well plate; 5×10^10 pfu of phage; HRP-conjugated M13 phage antibody", "protocol": "NV-VLP (5, 2.5, 1.25, 0.63 μg) or 5 μg of unrelated protein BSA was immobilized and binding of each phage, indicated on the X-axis, was detected by M13 phage antibody. OD450 signal is indicated on the Y-axis.\nEnzyme-linked immunosorbent assay (ELISA)—Initial ELISA experiments were performed by directly coating 0-5 μg of NV-VLP in 96-well polystyrene plates overnight. Wells were blocked with 2% milk in PBS for 2 hours at room temperature. After washing 3 times with PBS, 1×10^11 phage in 1% milk-PBS were added and incubated at room temperature with gentle rocking for 2 hours. Plates were washed 10 times with PBS-T. HRP-conjugated M13-antibody (Pharmacia Biotech) was diluted 1:5000 in 1% milk PBS and 100 μl was added to each well and incubated at room temperature for 45 minutes. After washing with PBS-T, HRP substrate, 3,3′,5′-tetramethylbenzidine (TMB)(KPL) was added to each well. Development was allowed to proceed for 10-20 minutes and stopped with 1M H3PO4 (KPL). Optical density was measured at 450 nm on a Tecan infinite M200pro plate reader.\nThe binding of each phage clone to immobilized NV-VLP was tested by phage ELISA. For these experiments, 0-5 μg of NV-VLP or bovine serum albumin (BSA), as a negative control, was adsorbed onto a 96-well plate and 5×10^10 pfu of phage were added to each well and binding was detected with an HRP-conjugated M13 phage antibody (FIG. 1)."}
{"sequence": "IQYRSWIPFSYP [NV-O-R5-6]", "values": [{"measurement": "Binding to immobilized NV-VLP (ELISA signal, OD450)", "result": "weakest signals"}]}
